Tests used:
[1] = system: MDA-MB-231 (breast); assay: SRB growth inhibition assay, MDA-MB-231; format: cell-based, Human; conditions: Homo sapiens, MDA-MB-231, 96 hours incubation, read-out: Inhibition of cell growth (IC50, μM) MDA-MB-231
Text: (§1) Cancer cells used in this study to determine the effect of tetrahydroisoquinolin-2-yl-(quinazolin-4-yl)methanone compounds were obtained from the following sources: Human OVCAR-3 (ovary), SK-MEL-28 (melanoma), MDA-MB-231 (breast), HeLa (cervix), PC3 (prostate), HepG2 (liver), A549 (lung), Caki-1 (kidney), HCT116 (colon) and PANC-1 (pancreas) from the American Type Culture Collection (ATCC) (Manassas, Va.); U251 (brain) from Riken (Japan); MKN-45 (stomach) from DSMZ (Germany). All cell lines except MDA-MB-231, HCT116, Caki-1 and PANC-1 were grown in RPMI1640 medium (Invitrogen, Carlsbad, Calif.) supplemented with 10% fetal bovine serum (“FBS”), 1 mM sodium pyruvate, 10 mM HEPES and 100 U/ml penicillin and 100 μg/ml streptomycin (“P/S”). MDA-MB-231, HCT116, Caki-1 and PANC-1 cells were maintained in Dulbecco's modified Eagle's medium (“DMEM”, Invitrogen) supplemented with 10% FBS, P/S, 10 mM HEPES and 2 mM L-glutamine. All cells were incubated at 37° C. under humidified 5% CO2.
(§2) The growth inhibition of the tetrahydroisoquinolin-2-yl-(quinazolin-4-yl)methanone compounds against a variety of human tumor cells was evaluated to study the relative importance of particular substituent groups on the compounds. The tetrahydroisoquinolin-2-yl-(quinazolin-4-yl)methanone compounds, prepared as described above, were tested with DMSO as a control.
(§3) The growth inhibition assay of representative tetrahydroisoquinolin-2-yl-(quinazolin-4-yl)methanone derivatives against human tumor cell lines was performed using the Sulforhodamine B (“SRB”) method (Skehan et al., J. National Cancer Institute, 82: 1107-1112 (1990)). Briefly, exponentially growing tumor cells were seeded into a 96-well plate at a density of 2-3×10^3 cells/well and treated with tetrahydroisoquinolin-2-yl-(quinazolin-4-yl)methanone compounds the next day. Triplicate wells were used for each treatment. The cells were incubated with the various compounds for 96 hours at 37° C. in a humidified 5% CO2 atmosphere. After 96-hour incubation, cells were fixed with 10% trichloroacetic acid (“TCA”), incubated for 1 hour at 4° C., and washed 3 times with tap water. Subsequently, cells were stained with 0.4% sulforhodamine B in 1% acetic acid for 30 minutes, washed 4 times with 1% acetic acid, and air-dried again After 5 minutes agitation in 10 mM Tris solution, the absorbance of each well was measured at 530 nm using Benchmark Plus Microplate reader (Bio-Rad Laboratories, Hercules, Calif.).
(§4) To translate the OD530 values into the number of live cells in each well, the OD530 values were compared to those on standard OD530-versus-cell number curves generated for each cell line. The percent survival was calculated using the formula: % Survival=live cell number [test]/live cell number [control]×100
(§5) The IC50 values were calculated by non-linear regression analysis.
(§6) The compounds were screened against at […] including PANC-1, MDA-MB-231, HCT116 and Caki-1, at approximately 1 μM concentration. The inhibition of cell growth (IC50, μM) of some tetrahydroisoquinolin-2-yl-(quinazolin-4-yl)methanone compounds are shown in Table 2.

[2] = system: HepG2 (liver); assay: SRB growth inhibition assay, HepG2; format: cell-based; conditions: Homo sapiens, 96 hours incubation, read-out: Inhibition of cell growth (IC50, μM) HepG2
Text: as §1, §2, §3, §4, §5

[3] = system: U251 (brain); assay: SRB growth inhibition assay, U251; format: cell-based; conditions: Homo sapiens, U-251, 96 hours incubation, read-out: Inhibition of cell growth (IC50, μM) U251
Text: as §1, §2, §3, §4, §5

[4] = system: A549 (lung); assay: SRB growth inhibition assay, A549; format: cell-based; conditions: Homo sapiens, 96 hours incubation, read-out: Inhibition of cell growth (IC50, μM) A549
Text: as §1, §2, §3, §4, §5

[5] = system: OVCAR-3 (ovary); assay: SRB growth inhibition assay, OVCAR-3; format: cell-based; conditions: Homo sapiens, 96 hours incubation, read-out: Inhibition of cell growth (IC50, μM) Ovcar3
Text: as §1, §2, §3, §4, §5

[6] = system: MKN-45 (stomach); assay: SRB growth inhibition assay, MKN-45; format: cell-based; conditions: Homo sapiens, 96 hours incubation, read-out: Inhibition of cell growth (IC50, μM) MKN-45
Text: as §1, §2, §3, §4, §5

[7] = system: PC3 (prostate); assay: SRB growth inhibition assay, PC3; format: cell-based; conditions: Homo sapiens, 96 hours incubation, read-out: Inhibition of cell growth (IC50, μM) PC-3
Text: as §1, §2, §3, §4, §5

[8] = system: HeLa (cervix); assay: SRB growth inhibition assay, HeLa; format: cell-based; conditions: Homo sapiens, 96 hours incubation, read-out: Inhibition of cell growth (IC50, μM) HeLa
Text: as §1, §2, §3, §4, §5

[9] = system: SK-MEL-28 (melanoma); assay: SRB growth inhibition assay, SK-MEL-28; format: cell-based; conditions: Homo sapiens, 96 hours incubation, read-out: Inhibition of cell growth (IC50, μM) SK-MEL-28
Text: as §1, §2, §3, §4, §5

[10] = system: Caki-1 (kidney); assay: SRB growth inhibition assay, Caki-1; format: cell-based, Human; conditions: Homo sapiens, CAKI-1, 96 hours incubation, read-out: Inhibition of cell growth (IC50, μM) Caki-1
Text: as §1, §2, §3, §4, §5, §6

[11] = system: HCT116 (colon); assay: SRB growth inhibition assay, HCT116; format: cell-based, Human; conditions: Homo sapiens, HCT-116, 96 hours incubation, read-out: Inhibition of cell growth (IC50, μM) HCT116
Text: as §1, §2, §3, §4, §5, §6

[12] = system: PANC-1 (pancreas); assay: SRB growth inhibition assay, PANC-1; format: cell-based, Human; conditions: Homo sapiens, PANC-1, 96 hours incubation, read-out: Inhibition of cell growth (IC50, μM) Panc-1
Text: as §1, §2, §3, §4, §5, §6

[13] = system: MDA-MB-231 human breast adenocarcinoma cells; assay: Xenograft study in nude mice; format: in vivo; conditions: 50 mg/kg intraperitoneal three times per week from day 15; subcutaneous MDA-MB-231 xenograft, female NCr nu/nu mice
Procedure: Tumor growth inhibition by tetrahydroisoquinolin-2-yl-(quinazolin-4-yl)methanone compounds in an animal model was carried out by performing an […] xenograft study of nude mice was conducted with Compound 1. Suitable human cancer cell lines are those that have been tested previously for inhibition of cancer cell growth. The antitumor efficacy of Compound 1 was evaluated against subcutaneously injected tumor xenografts in nude mice. Tumor volume was measured after treatment with Compound 1.
A suspension of MDA-MB-231 cells (5×10^6 cells in […]) was injected subcutaneously into the right flank of CR female NCr nu/nu mice on day 0. A sufficient number of mice were injected with MDA-MB-231 cell suspension (0.2 ml/mouse) so that tumors in a volume range as narrow as possible were selected for the trial on the day of treatment initiation. Animals with tumors in the proper size range (100˜150 mm^3) were assigned to various treatment groups. Compound 1 was dissolved in the mixture of 15% dimethylacetamide and 30% Solutol® HS15 in water. Solvent alone served as control. […] To quantify tumor growth, three perpendicular diameters of the tumors were measured with calipers every 3-4 days, and the body weight of the mice was monitored for toxicity. The tumor volume was calculated using the formula: tumor volume (mm^3)=(width)×(length)×(height)×π/6.

SMILES	IC50 [1]	IC50 [2]	IC50 [3]	IC50 [4]	IC50 [5]	IC50 [6]	IC50 [7]	IC50 [8]	IC50 [9]	IC50 [11]	IC50 [12]	IC50 [10]	inhibition of tumor growth (tumor volume) [13]
COc1ccc2c(c1O)CCN(C(=O)c1nc(-c3ccc(F)cc3)nc3ccccc13)C2 [Compound 1, 2-[[2-(4-fluorophenyl)quinazolin-4-yl]carbonyl]-5-hydroxy-6-methoxy-1,2,3,4-tetrahydroisoquinoline]	0.06 µM	0.12 µM	0.067 µM	0.14 µM	0.06 µM	0.058 µM	0.076 µM	0.063 µM	0.063 µM	0.069 µM	0.057 µM	0.056 µM	inhibition of tumor growth
COc1ccc2c(c1O)CCN(C(=O)c1nc(-c3cccc(F)c3)nc3ccccc13)C2 [Compound 42, 2-[[2-(3-fluorophenyl)quinazolin-4-yl]carbonyl]-5-hydroxy-6-methoxy-1,2,3,4-tetrahydroisoquinoline]	0.12 µM	0.2 µM	0.11 µM	0.21 µM	0.15 µM	0.051 µM	0.15 µM	0.12 µM	0.098 µM	0.14 µM	0.12 µM	0.082 µM	–
COc1ccc(-c2nc(C(=O)N3CCc4c(ccc(OC)c4O)C3)c3ccccc3n2)cc1 [Compound 22, 2-[[2-(4-methoxylphenyl)quinazolin-4-yl]carbonyl]-5-hydroxy-6-methoxy-1,2,3,4-tetrahydroisoquinoline]	0.052 µM	0.19 µM	0.069 µM	0.15 µM	0.08 µM	0.055 µM	0.076 µM	0.064 µM	0.072 µM	0.086 µM	0.056 µM	0.057 µM	–
COc1ccc2c(c1O)CCN(C(=O)c1nc(-c3ccccc3)nc3ccccc13)C2 [Compound 17, 2-[[2-phenylquinazolin-4-yl]carbonyl]-5-hydroxy-6-methoxy-1,2,3,4-tetrahydroisoquinoline]	0.066 µM	0.14 µM	0.067 µM	0.15 µM	0.074 µM	0.063 µM	0.076 µM	0.074 µM	0.069 µM	0.081 µM	0.062 µM	0.057 µM	–
COc1ccc2c(c1O)CCN(C(=O)c1nc(-c3ccc(F)cc3F)nc3ccccc13)C2 [Compound 57, 2-[[2-(2,4-difluorophenyl)quinazolin-4-yl]carbonyl]-5-hydroxy-6-methoxy-1,2,3,4-tetrahydroisoquinoline]	0.17 µM	0.31 µM	0.17 µM	–	0.23 µM	–	0.21 µM	–	0.2 µM	0.22 µM	0.19 µM	0.21 µM	–

Continued, in another order:

IC50 [1]	IC50 [2]	IC50 [3]	IC50 [4]	IC50 [5]	IC50 [6]	IC50 [7]	IC50 [8]	IC50 [9]	IC50 [11]	IC50 [12]	SMILES	IC50 [10]	inhibition of tumor growth (tumor volume) [13]
0.16 µM	0.18 µM	0.13 µM	–	0.073 µM	0.087 µM	–	0.16 µM	0.11 µM	0.17 µM	0.13 µM	COc1ccc2c(c1O)CCN(C(=O)c1nc(-c3ccc(F)cc3)nc3ccc(F)cc13)C2 [Compound 97, 2-[[6-fluoro-2-(4-fluorophenyl)quinazolin-4-yl]carbonyl]-5-hydroxy-6-methoxy-1,2,3,4-tetrahydroisoquinoline]	0.11 µM	–
0.13 µM	0.2 µM	0.11 µM	0.24 µM	0.14 µM	0.071 µM	0.15 µM	0.15 µM	0.13 µM	0.15 µM	0.15 µM	COc1ccc2c(c1O)CCN(C(=O)c1nc(-c3cccnc3)nc3ccccc13)C2 [Compound 84, 2-[[2-(3-pyridinyl)quinazolin-4-yl]carbonyl]-5-hydroxy-6-methoxy-1,2,3,4-tetrahydroisoquinoline]	0.093 µM	–
0.045 µM	0.096 µM	0.064 µM	0.11 µM	0.068 µM	0.058 µM	0.049 µM	0.074 µM	0.059 µM	0.068 µM	0.054 µM	COc1ccc2c(c1O)CCN(C(=O)c1nc(-c3ccncn3)nc3ccccc13)C2 [Compound 70, 2-[[2-(4-pyrimidinyl)quinazolin-4-yl]carbonyl]-5-hydroxy-6-methoxy-1,2,3,4-tetrahydroisoquinoline]	0.055 µM	–
